Measurements published in EP4389111A1, “METHOD OF PREPARATION OF C[…] […] AND C[…] […]” (Aero-Bw K. Domagala Sp. Jawna, priority 2022, dated 2024).
Several values for one entry are separate records, joined by “and”; a condition that tells them apart may be missing. Equal entries are not always repeated.

Test system: Salmonella typhimurium TA98
Experiment: Ames test, strain TA98 (reading frame shift)
Assay type: cell-based
Details: positive control at 2 µg/mL
From the text: The test allows the identification of substances that cause mutations such as reading frame shifts or base pair substitutions. The test uses modified strains of Salmonella typhimurium bacteria carrying mutations in the operon of the gene encoding the amino acid histidine.
The aim of the study was to assess the mutagenic potential of three extracts obtained from stem cells using two strains of Salmonella typhimurium carrying two types of mutations: TA 98—reading frame shift and TA 100—base pair substitution.
The experimental procedure was carried out basing on the manufacturer's experimental protocol (Xenometrix).

For `O=[N+]([O-])c1ccc2c(c1)Cc1ccccc1-2` [Extract 2-NF, 2-nitrofluorene], the “MOI (Multiplicity of induction compared to baseline)” value was 6.9 and 5.6.
